Where two headings read alike, the source gives them in different places.
Experiments:
[1] = biological target: T1, A156T mutant of the HCV NS3/4A 1b protease enzyme (Hepatitis C virus genotype 1b, UniProt P26663, A1182T); test: HCV Protease FRET Assay (IC50), A156T mutant; assay type: biochemical
T1 construct: 10× stocks of NS3/4A protease enzyme from Bioenza (Mountain View, Calif.); purchased Bioenza (Mountain View, Calif.)

HCV NS3/4A protease = HCV NS3/4A protease (UniProt Q9WMX2); test: Method B: HCV Protease Assay using FRET Methodology; parameters: species or system Hepatitis C virus
Text: Method B: HCV Protease Assay using FRET Methodology
A quantitative, fluorescence resonance energy transfer (FRET)-based methodology was employed to identify HCV NS3/4A protease inhibitors. The assay employed a synthetic FRET peptide, derived from the HCV NS5A/5B cleavage site, with the HCV protease to evaluate the activity of compounds against the protease by monitoring the cleavage activity of the complex. A synthetic peptide which encompasses the NS5A-5B junction (NH2-EDVVCCSMSYK-COOH) was labeled with Dabcyl and Edans at N- and C-termini, respectively (Invitrogen, Carlsbad, Calif.). Fluorescence measurement was used to estimate the IC50 value of the test compound. […] Upon cleavage of the FRET peptide by HCV NS3/4A proteinase complex (100 ng/mL), the fluorescence is recovered and can be continuously monitored at excitation/emission=340/490 nm.

[2] = biological target: T2, HCV NS3/4A wild type (genotype 1b) (Hepatitis C virus genotype 1b, UniProt P26663); test: Mass spectrometric analysis (MALDI-TOF) of covalent modification, HCV wild type; assay type: binding; details: 10-fold excess of compound to protein, 3 hrs
T2 construct: mass spectroscopic analysis of HCV NS3/4A wild-type protease domain; purchased Bioenza Calif
Description: Mass spectrometric analysis of HCV wild type or HCV variant C159S in the presence of test compound was performed. 100 pmols of HCV wild type (Bioenza Calif.) was incubated with compound for 1 hr and 3 hrs at 10-fold access of […] to protein. 1 ul aliquots of the samples (total volume of 4.24 ul) were diluted with 10 ul of 0.1% TFA prior to micro C4 ZipTipping directly onto the MALDI target using Sinapinic acid as the desorption matrix (10 mg/ml in 01% TFA:Acetonitrile 50:50). Analyses were performed on a Shimadzu Biotech Axima TOF^2 (Shimadzu Instruments) matrix-assisted-laser desorption/ionization Time-of-Flight (MALDI-TOF) mass spectrometer. The same procedure was carried out on 100 pmols of HCV C159S mutant of HCV protease for 3 hrs at 10-fold excess of (I-3) to protein.
As depicted in FIGS. 2, 3, 4, and 5, mass spectrometric analysis of HCV wild type or HCV mutants in the presence of test compound (I-3) was performed. […] 1 ul aliquots of the samples were diluted with 10 ul of 0.1% TFA prior to micro C4 ZipTipping directly onto the MALDI target using Sinapinic acid as the desorption matrix (10 mg/ml in 0.1% TFA:Acetonitrile 50:50).
Mass spectrometric analysis of HCV wild type (genotype 1b) in the presence of test compounds I-73 and I-75 was performed using the following protocol: HCV NS3/4A wild type (wt) was incubated for 1 hr at a 10× fold access of test compound to protein. 2 ul aliquots of the samples were diluted with 10 ul of 0.1% TFA prior to micro C4 ZipTipping directly onto the MALDI target using Sinapinic acid as the desorption matrix (10 mg/ml in 0.1% TFA:Acetonitrile 50:50). For intact protein mass measurement the instrument was set in Linear mode using a pulsed extraction setting of 24,500 and apomyoglobin as the standard to calibrate the instrument.
Mass spectrometric analysis of HCV NS3/4A genotypes 1a, 1b, 2a, and 3a in the presence of test compound I-96 was performed using the following protocol: HCV NS3/4A was incubated for 3 hr at a 10× fold access of test compound to protein. […]

[3] = read-out: Inhibition, HCV A156T, A156T enzyme, FRET assay

SMILES	IC50 ([1]; read-out: Comparative IC50 Values, A156T, biochemical assay)	IC50 [1, 3]	IC50 (HCV NS3/4A protease; Enzyme/Assay: Biochemical; read-out: Inhibition, Biochemical)	IC50 (HCV NS3/4A protease; read-out: Inhibition, Biochemical; Enzyme/Assay: Biochemical)	Covalent modification of HCV wild type by mass spectrometry [2]
C=CC(=O)NC[C@H](NC(=O)OC(C)(C)C)C(=O)N1C[C@H](Oc2cc(-c3ccccc3)nc3cc(OC)ccc23)C[C@H]1C(=O)N[C@]1(C(=O)NS(=O)(=O)c2ccccc2)C[C@H]1C=C [Compound I-3, N-[(1,1-dimethylethoxy)carbonyl]-3-[(2-propenoyl)amino]-L-alanyl-(4R)-4-[(7-methoxy-2-phenyl-4-quinolinyl)oxy]-L-prolyl-1-amino-2-ethenyl-N-(phenylsulfonyl)-(1R,2S)-cyclopropanecarboxamide]	18 nM	10 to 100 nM	10 to 100 nM		
C=C[C@@H]1C[C@]1(NC(=O)[C@@H]1C[C@@H](Oc2cc(-c3ccccc3)nc3cc(OC)ccc23)CN1C(=O)[C@H](CNC(=O)CCl)NC(=O)OC(C)(C)C)C(=O)NS(=O)(=O)c1ccccc1 [Compound I-7, N-[(1,1-dimethylethoxy)carbonyl]-3-[(chloroacetyl)amino]-L-alanyl-(4R)-4-[(7-methoxy-2-phenyl-4-quinolinyl)oxy]-L-prolyl-1-amino-2-ethenyl-N-(phenylsulfonyl)-(1R,2S)-cyclopropanecarboxamide]		10 to 100 nM		10 to 100 nM	
C=CC(=O)NCC(=O)N1C[C@H](Oc2cc(-c3ccccc3)nc3cc(OC)ccc23)C[C@H]1C(=O)N[C@]1(C(=O)NS(=O)(=O)c2ccccc2)C[C@H]1C=C [Compound I-27, (2S,4R)-1-(2-acrylamidoacetyl)-4-(7-methoxy-2-phenylquinolin-4-yloxy)-N-((1R,2S)-1-(phenylsulfonylcarbamoyl)-2-vinylcyclopropyl)pyrrolidine-2-carboxamide]		10 to 100 nM			near complete covalent modification

Reference: patent US8309685B2 (Celgene Avilomics Research, Inc., priority 2007, dated 2012)
